Assay results from patent US20240270741A1 (Cogent Biosciences, Inc., priority 2023, published 2024).

Molecular target: FGFR2 (Homo sapiens, UniProt P21802)
Assay: FGFR wild type enzyme assay (HTRF KinEASE-TK), FGFR2
Settings: Enz FGFR2 (nM), FGFR2 wild type enzyme

Chain of FGFR2 (P21802 399-821 limits assumed): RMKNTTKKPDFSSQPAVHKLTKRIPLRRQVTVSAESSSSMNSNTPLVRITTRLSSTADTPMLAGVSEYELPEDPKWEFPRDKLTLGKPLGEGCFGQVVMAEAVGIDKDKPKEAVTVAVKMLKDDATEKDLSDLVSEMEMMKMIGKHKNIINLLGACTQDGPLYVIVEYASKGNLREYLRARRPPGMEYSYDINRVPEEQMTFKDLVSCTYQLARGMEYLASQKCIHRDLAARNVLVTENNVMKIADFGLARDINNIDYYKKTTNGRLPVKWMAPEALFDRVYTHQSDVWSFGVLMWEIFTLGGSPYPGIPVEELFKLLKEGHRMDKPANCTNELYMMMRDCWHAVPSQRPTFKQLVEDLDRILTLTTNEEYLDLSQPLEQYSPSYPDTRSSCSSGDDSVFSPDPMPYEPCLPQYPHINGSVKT

| IC50 [nM] | SMILES |
| --- | --- |
| 0.5 | Cc1c(-c2cc(Sc3ccccc3C#N)c3c(C#N)cnn3c2)cnn1C1CCC(N(C)C)CC1 (centres unmarked) [Example 159] |
| 2 | Cc1c(-c2cc(Sc3ncccc3F)c3c(C#N)cnn3c2)cnn1[C@@H](C)C1CCN(C)CC1 [Example 160, (S)-4-((3-fluoropyridin-2-yl)thio)-6-(5-methyl-1-(1-(1-methylpiperidin-4-yl)ethyl)-1H-pyrazol-4-yl)pyrazolo[1,5-a]pyridine-3-carbonitrile] |
| 2 | Cc1c(-c2cc(Sc3ncccc3F)c3c(C#N)cnn3c2)cnn1[C@@H](C)C1CCNCC1 [Example 161, 4-[(3-fluoro-2-pyridyl)sulfanyl]-6-[5-methyl-1-[(1S)-1-(4-piperidyl)ethyl]pyrazol-4-yl]pyrazolo[1,5-a]pyridine-3-carbonitrile] |
| 1 | Cc1c(-c2cc(Sc3ncccc3F)c3c(C#N)cnn3c2)cnn1C1CC2(CCNCC2)C1 [Example 162, 4-((3-fluoropyridin-2-yl)thio)-6-(5-methyl-1-(7-azaspiro[3.5]nonan-2-yl)-1H-pyrazol-4-yl)pyrazolo[1,5-a]pyridine-3-carbonitrile] |
| 3 | Cc1c(-c2cc(Sc3ncccc3F)c3c(C#N)cnn3c2)cnn1C1CCN(C(=O)CO)CC1 [Example 163, 4-((3-fluoropyridin-2-yl)thio)-6-(1-(1-(2-hydroxyacetyl)piperidin-4-yl)-5-methyl-1H-pyrazol-4-yl)pyrazolo[1,5-a]pyridine-3-carbonitrile] |
| 5 | CC(=O)N1CCC(n2ncc(-c3cc(Sc4ncc(F)cc4F)c4c(C#N)cnn4c3)c2C)CC1 [Example 164, 6-(1-(1-acetylpiperidin-4-yl)-5-methyl-1H-pyrazol-4-yl)-4-((3,5-difluoropyridin-2-yl)thio)pyrazolo[1,5-a]pyridine-3-carbonitrile] |
| 2 | Cc1c(-c2cc(Sc3ncccc3F)c3c(C#N)cnn3c2)cnn1[C@H]1CCCN(S(C)(=O)=O)C1 [Example 165, (S)-4-((3-fluoropyridin-2-yl)thio)-6-(5-methyl-1-(1-(methylsulfonyl)piperidin-3-yl)-1H-pyrazol-4-yl)pyrazolo[1,5-a]pyridine-3-carbonitrile] |
| 2 | CC(=O)N1CCC[C@H](n2ncc(-c3cc(Sc4ncccc4F)c4c(C#N)cnn4c3)c2C)C1 [Example 166, (S)-6-(1-(1-acetylpiperidin-3-yl)-5-methyl-1H-pyrazol-4-yl)-4-((3-fluoropyridin-2-yl)thio)pyrazolo[1,5-a]pyridine-3-carbonitrile] |
| 2 | Cc1c(-c2cc(Sc3ncccc3F)c3c(C#N)cnn3c2)cnn1[C@H]1CCCN(C(=O)CO)C1 [Example 167, (S)-4-((3-fluoropyridin-2-yl)thio)-6-(1-(1-(2-hydroxyacetyl)piperidin-3-yl)-5-methyl-1H-pyrazol-4-yl)pyrazolo[1,5-a]pyridine-3-carbonitrile] |
| 1 | Cc1c(F)ccc(Sc2cc(-c3cnn(C4CCNCC4)c3C)cn3ncc(C#N)c23)c1C#N [Example 168] |
| 0.4 | C[C@H](O)CN1CC[C@@H](n2cc(-c3cc(Sc4ccccc4C#N)c4c(C#N)cnn4c3)cn2)C1 [Example 169, 4-(2-cyanophenyl)sulfanyl-6-[1-[(3R)-1-[(2S)-2-hydroxypropyl]pyrrolidin-3-yl]pyrazol-4-yl]pyrazolo[1,5-a]pyridine-3-carbonitrile] |
| 72 | Cc1c(-c2cc(Sc3ccccc3C#N)c3c(C#N)cnn3c2)cnn1C[C@@H]1CCCNC1 [Example 170, 4-(2-cyanophenyl)sulfanyl-6-[5-methyl-1-[[(3R)-3-piperidyl]methyl]pyrazol-4-yl]pyrazolo[1,5-a]pyridine-3-carbonitrile] |
| 1 | Cc1c(-c2cc(Sc3ncccc3F)c3c(C#N)cnn3c2)cnn1C1CCC(N(C)C)CC1 (centres unmarked) [Example 171] |
| 1 | CCN(C)C1CCC(n2ncc(-c3cc(Sc4ncccc4F)c4c(C#N)cnn4c3)c2C)CC1 (centres unmarked) [Example 172, 6-(1-(4-(ethyl(methyl)amino)cyclo-hexyl)-5-methyl-1H-pyrazol-4-yl)-4-((3-fluoropyridin-2-yl)thio)pyrazolo[1,5-a]pyridine-3-carbonitrile] |
| 1 | Cc1c(-c2cc(Sc3ncccc3F)c3c(C#N)cnn3c2)cnn1C1CCC(N(C)C(=O)CN(C)C)CC1 (centres unmarked) [Example 173, N-(4-(4-(3-cyano-4-((3-fluoropyridin-2-yl)thio)pyrazolo[1,5-a]pyridin-6-yl)-5-methyl-1H-pyrazol-1-yl)cyclohexyl)-2-(dimethylamino)-N-methylacetamide] |
| 4 | CC(=O)N1CCC([C@@H](C)n2ncc(-c3cc(Sc4ncccc4F)c4c(C#N)cnn4c3)c2C)CC1 [Example 174, (R)-6-(1-(1-(1-acetylpiperidin-4-yl)ethyl)-5-methyl-1H-pyrazol-4-yl)-4-((3-fluoropyridin-2-yl)thio)pyrazolo[1,5-a]pyridine-3-carbonitrile] |

| IC50 [nM] | SMILES |
| --- | --- |
| 1 | Cc1c(-c2cc(Sc3ncccc3F)c3c(C#N)cnn3c2)cnn1[C@H]1CC[C@@]2(CCNC2)CC1 [Example 175, 4-((3-fluoropyridin-2-yl)thio)-6-(5-methyl-1-((5r,8r)-2-azaspiro[4.5]decan-8-yl)-1H-pyrazol-4-yl)pyrazolo[1,5-a]pyridine-3-carbonitrile] |
| 1.5 | CC(=O)N1CCC2(CC1)CC(n1ncc(-c3cc(Sc4ncccc4F)c4c(C#N)cnn4c3)c1C)C2 [Example 176, 6-(1-(7-acetyl-7-azaspiro[3.5]nonan-2-yl)-5-methyl-1H-pyrazol-4-yl)-4-((3-fluoropyridin-2-yl)thio)pyrazolo[1,5-a]pyridine-3-carbonitrile] |
| 1 | Cc1c(-c2cc(Sc3ncccc3F)c3c(C#N)cnn3c2)cnn1[C@H]1CC[C@@H](NS(C)(=O)=O)CC1 [Example 177, N-((1s,4s)-4-(4-(3-cyano-4-((3-fluoropyridin-2-yl)thio)pyrazolo[1,5-a]pyridin-6-yl)-5-methyl-1H-pyrazol-1-yl)cyclohexyl)methane-sulfonamide] |
| 1 | Cc1c(-c2cc(Sc3ncccc3F)c3c(C#N)cnn3c2)cnn1C1CCNC(C)(C)C1 (centres unmarked) [Example 178] |
| 3 | Cc1c(-c2cc(Sc3ncccc3F)c3c(C#N)cnn3c2)cnn1[C@@H](C)CN(C)C [Example 179, (S)-6-(1-(1-(dimethylamino)propan-2-yl)-5-methyl-1H-pyrazol-4-yl)-4-((3-fluoropyridin-2-yl)thio)pyrazolo[1,5-a]pyridine-3-carbonitrile] |
| 15 | Cc1c(-c2cc(Sc3ncccc3F)c3c(C#N)cnn3c2)cnn1[C@H](C)CN(C)C [Example 180, (R)-6-(1-(1-(dimethylamino)propan-2-yl)-5-methyl-1H-pyrazol-4-yl)-4-((3-fluoropyridin-2-yl)thio)pyrazolo[1,5-a]pyridine-3-carbonitrile] |
| 7 | Cc1c(-c2cc(Sc3ncccc3F)c3c(C#N)cnn3c2)cnn1C[C@@H](C)N(C)C [Example 181, (R)-6-(1-(2-(dimethylamino)propyl)-5-methyl-1H-pyrazol-4-yl)-4-((3-fluoropyridin-2-yl)thio)pyrazolo[1,5-a]pyridine-3-carbonitrile] |
| 8 | Cc1c(-c2cc(Sc3ncccc3F)c3c(C#N)cnn3c2)cnn1C[C@H](C)N(C)C [Example 182, (S)-6-(1-(2-(dimethylamino)propyl)-5-methyl-1H-pyrazol-4-yl)-4-((3-fluoropyridin-2-yl)thio)pyrazolo[1,5-a]pyridine-3-carbonitrile] |
| 8 | N#Cc1cnn2cc(-c3cnn4c3CNCC4)cc(Sc3ncccc3F)c12 [Example 183, 4-((3-fluoropyridin-2-yl)thio)-6-(4,5,6,7-tetrahydropyrazolo[1,5-a]pyrazin-3-yl)pyrazolo[1,5-a]pyridine-3-carbonitrile] |
| 1.6 | Cc1c(-c2cc(Sc3ncccc3F)c3c(C#N)cnn3c2)cnn1[C@H]1CC[C@@H](O)CC1 [Example 184, 4-((3-fluoropyridin-2-yl)thio)-6-(1-((1s,4s)-4-hydroxycyclohexyl)-5-methyl-1H-pyrazol-4-yl)pyrazolo[1,5-a]pyridine-3-carbonitrile] |
| 1 | Cc1c(-c2cc(Sc3ncccc3F)c3c(C#N)cnn3c2)cnn1[C@H]1CC[C@H](O)CC1 [Example 185, 4-((3-fluoropyridin-2-yl)thio)-6-(1-((1r,4r)-4-hydroxycyclohexyl)-5-methyl-1H-pyrazol-4-yl)pyrazolo[1,5-a]pyridine-3-carbonitrile] |
| 3 | Cc1c(-c2cc(Sc3ncccc3F)c3c(C#N)cnn3c2)cnn1[C@H]1CC[C@@H](N)CC1 [Example 186, 6-(1-((1s,4s)-4-aminocyclohexyl)-5-methyl-1H-pyrazol-4-yl)-4-((3-fluoropyridin-2-yl)thio)pyrazolo[1,5-a]pyridine-3-carbonitrile] |
| 1 | Cc1c(-c2cc(Sc3ncccc3F)c3c(C#N)cnn3c2)cnn1[C@H]1CC[C@H](N)CC1 [Example 187, 6-(1-((1r,4r)-4-aminocyclohexyl)-5-methyl-1H-pyrazol-4-yl)-4-((3-fluoropyridin-2-yl)thio)pyrazolo[1,5-a]pyridine-3-carbonitrile] |
| 0.5 | Cc1c(-c2cc(Sc3ccccc3C#N)c3c(C#N)cnn3c2)cnn1[C@H]1CC[C@@H](O)CC1 [Example 188, 4-((2-cyanophenyl)thio)-6-(1-((1s,4s)-4-hydroxycyclohexyl)-5-methyl-1H-pyrazol-4-yl)pyrazolo[1,5-a]pyridine-3-carbonitrile] |
| 0.7 | Cc1c(-c2cc(Sc3ccccc3C#N)c3c(C#N)cnn3c2)cnn1[C@H]1CC[C@H](O)CC1 [Example 189, 4-((2-cyanophenyl)thio)-6-(1-((1r,4r)-4-hydroxycyclohexyl)-5-methyl-1H-pyrazol-4-yl)pyrazolo[1,5-a]pyridine-3-carbonitrile] |
| 3 | CC(=O)N1CCC[C@H](n2ncc(-c3cc(Sc4ncc(F)cc4F)c4c(C#N)cnn4c3)c2C)C1 [Example 190, (S)-6-(1-(1-acetylpiperidin-3-yl)-5-methyl-1H-pyrazol-4-yl)-4-((3,5-difluoropyridin-2-yl)thio)pyrazolo[1,5-a]pyridine-3-carbonitrile] |
